Biological target: T1, trkA (Rattus norvegicus, UniProt P35739)
T1 construct: are rat pheochromocytoma cells that bear trkA; host or cells: PC12 rat pheochromocytoma cells
Assay: inhibition of NGF-stimulated trk autophosphorylation (tyrosine phosphorylation) in PC12 cells, anti-phosphotyrosine Western blot; for trk 100 nM (inhibition of phosphorylation): key: +: Inhibited phosphorylation; -: Did not inhibit phosphorylation; for trk 500 nM (inhibition of phosphorylation): key: +: Inhibited phosphorylation; -: Did not inhibit phosphorylation
Format: cell-based
Settings: for trk 100 nM (inhibition of phosphorylation) / phosphorylation response (FIG. 1, spot): 100 nM compound; for trk 100 nM (inhibition of phosphorylation) / trk 500 nM (inhibition of phosphorylation): NGF 50 ng/ml; for trk 500 nM (inhibition of phosphorylation): 500 nM compound; for phosphorylation response (FIG. 1, spot): NGF, Western blot FIG. 1
Method: Candidate compounds for the inhibition of prostate cell proliferation were selected according to their ability to inhibit the tyrosine kinase activity associated with the trks.
PC12 cells (ATCC #CRL1721) are rat pheochromocytoma cells that bear trkA and differentiate into sympathetic neurons when treated with NGF. […] Cells were incubated at 37° C. in a humidified atmosphere of 10% CO2 and 90% air. […] The cells in each culture were disrupted and cell lysates were prepared by standard techniques known to those skilled in the art. Each lysate was incubated with anti-trk antibody whereby immune complexes were formed. […] The immune complexes were collected on Protein A-Sepharose beads, separated by SDS-polyacrylamide gel electrophoresis (SDS-PAGE), and transferred to polyvinylidene difluoride (PVDF) membranes (Millipore Corp., Bedford, Mass.), using techniques well known to those skilled in the art. The membranes were incubated with anti-phosphotyrosine antibody, which binds to the tyrosine phosphorylated trks, but not to the un-phosphorylated form of trks. Proteins bound to anti-phosphotyrosine antibody were visualized with enhanced chemiluminescence (ECL, Amersham), and are shown as dark "spots" in FIG. 1.
Measurement of the autophosphorylation of trk provides a good index of trk tyrosine kinase activity, and thereby of trk stimulation.
Inhibition was indicated by the absence of a spot migrating with the trk marker shown at the left side of the figure. Partial inhibition was indicated by a spot of reduced size.

T1 sequence (P35739 33-799): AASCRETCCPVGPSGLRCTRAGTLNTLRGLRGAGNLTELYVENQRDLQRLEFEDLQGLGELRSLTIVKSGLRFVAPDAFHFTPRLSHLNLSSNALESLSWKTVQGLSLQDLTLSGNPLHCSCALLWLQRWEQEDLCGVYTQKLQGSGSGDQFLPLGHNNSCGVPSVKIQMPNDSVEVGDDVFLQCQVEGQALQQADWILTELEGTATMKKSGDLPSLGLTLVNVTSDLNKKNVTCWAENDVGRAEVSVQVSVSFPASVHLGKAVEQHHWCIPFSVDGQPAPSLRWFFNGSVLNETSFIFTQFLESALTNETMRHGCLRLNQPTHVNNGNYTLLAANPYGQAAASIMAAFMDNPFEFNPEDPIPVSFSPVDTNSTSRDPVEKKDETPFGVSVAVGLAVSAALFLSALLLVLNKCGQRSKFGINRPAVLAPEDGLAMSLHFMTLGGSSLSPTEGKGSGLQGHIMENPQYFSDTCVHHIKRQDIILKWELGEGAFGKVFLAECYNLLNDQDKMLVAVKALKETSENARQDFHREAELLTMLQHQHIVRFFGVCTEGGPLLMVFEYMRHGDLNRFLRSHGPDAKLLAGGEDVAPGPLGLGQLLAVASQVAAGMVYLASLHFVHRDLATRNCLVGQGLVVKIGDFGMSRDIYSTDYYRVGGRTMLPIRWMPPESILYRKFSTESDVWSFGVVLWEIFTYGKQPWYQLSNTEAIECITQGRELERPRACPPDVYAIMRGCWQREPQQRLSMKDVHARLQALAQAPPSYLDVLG

trk 100 nM (inhibition of phosphorylation)	trk 500 nM (inhibition of phosphorylation)	phosphorylation response (FIG. 1, spot)	SMILES
-	+		COC(=O)C1(O)CC2OC1(C)n1c3ccc(Cl)cc3c3c4c(c5c6cc(Cl)ccc6n2c5c31)C(=O)NC4 (centres unmarked) [Compound I-44]
+			CC12OC(CC1=O)n1c3ccccc3c3c4c(c5c6ccccc6n2c5c31)CNC4=O (centres unmarked) [Compound I-52]
+			CNC(=O)C1(O)CC2OC1(C)n1c3ccccc3c3c4c(c5c6ccccc6n2c5c31)C(=O)NC4 (centres unmarked) [Compound I-54]
+			CC(=O)OC1(C(=O)NCC(C)C)CC2OC1(C)n1c3ccccc3c3c4c(c5c6ccccc6n2c5c31)C(=O)NC4 (centres unmarked) [Compound I-55]
	+		CSCC1(O)CC2OC1(C)n1c3ccccc3c3c4c(c5c6ccccc6n2c5c31)C(=O)NC4 (centres unmarked) [Compound I-56]
+			CC12OC(CC1(O)CNC(=O)[C@@H](N)CCCCN)n1c3ccccc3c3c4c(c5c6ccccc6n2c5c31)CNC4=O (some centres unmarked) [Compound I-57]
-	+		COC(=O)C1(O)CC2OC1(C)n1c3ccccc3c3c4c(c5c6cc(C(Sc7ccccc7)Sc7ccccc7)ccc6n2c5c31)C(=O)NC4 (centres unmarked) [Compound I-58]
-	+		COC(=O)C1(O)CC2OC1(C)n1c3ccccc3c3c4c(c5c6cc(C7SCCS7)ccc6n2c5c31)C(=O)NC4 (centres unmarked) [Compound I-59]
-	+		COC(=O)C1(O)CC2OC1(C)n1c3ccccc3c3c4c(c5c6cc(CSc7ccccn7)ccc6n2c5c31)C(=O)NC4 (centres unmarked) [Compound I-60]
-	+		COC(=O)C1(O)CC2OC1(C)n1c3ccccc3c3c4c(c5c6cc(C=NNC7=NCCN7)ccc6n2c5c31)C(=O)NC4 (centres unmarked) [Compound I-61]
+	+		COC(=O)C1(O)CC2OC1(C)n1c3ccccc3c3c4c(c5c6cc(CSc7ncccn7)ccc6n2c5c31)C(=O)NC4 (centres unmarked) [Compound I-62]
-	+		COC(=O)C1(O)CC2OC1(C)n1c3ccccc3c3c4c(c5c6cc(C[S+]([O-])c7ncccn7)ccc6n2c5c31)C(=O)NC4 (centres unmarked) [Compound I-63]
-	+		COC(=O)C1(O)CC2OC1(C)n1c3ccccc3c3c4c(c5c6cc(C[S+]([O-])c7ccccn7)ccc6n2c5c31)C(=O)NC4 (centres unmarked) [Compound I-64]
-	+		CCSCc1ccc2c(c1)c1c3c(c4c5cc(CO)ccc5n5c4c1n2C1CC(O)(C(=O)OC)C5(C)O1)CNC3=O (centres unmarked) [Compound I-65]
-	+		CC[S+]([O-])Cc1ccc2c(c1)c1c3c(c4c5cc(C[S+]([O-])CC)ccc5n5c4c1n2C1CC(O)(C(=O)OC)C5(C)O1)CNC3=O (centres unmarked) [Compound I-66]

More lines, now with the values behind:

SMILES	trk 100 nM (inhibition of phosphorylation)	trk 500 nM (inhibition of phosphorylation)	phosphorylation response (FIG. 1, spot)
CC12OC(CC1O)n1c3ccccc3c3c4c(c5c6ccccc6n2c5c31)CNC4=O (centres unmarked) [Compound I-3]	+		
CC12OC(CC1(O)C(N)=O)n1c3ccccc3c3c4c(c5c6ccccc6n2c5c31)CNC4=O (centres unmarked) [Compound I-4]	+	+	
CC(=O)OCC1(O)CC2OC1(C)n1c3ccccc3c3c4c(c5c6ccccc6n2c5c31)C(=O)NC4 (centres unmarked) [Compound I-6]	+		
CC12OC(CC13CNC(=O)O3)n1c3ccccc3c3c4c(c5c6ccccc6n2c5c31)CNC4=O (centres unmarked) [Compound I-7]	+		absent (no spot seen)
CCNC(=O)C1(O)CC2OC1(C)n1c3ccccc3c3c4c(c5c6ccccc6n2c5c31)C(=O)NC4 (centres unmarked) [Compound I-9]	+		absent (no spot seen)
CCCNC(=O)C1(O)CC2OC1(C)n1c3ccccc3c3c4c(c5c6ccccc6n2c5c31)C(=O)NC4 (centres unmarked) [Compound I-10]	+		
CC12OC(CC1(O)C(=O)N1CCOCC1)n1c3ccccc3c3c4c(c5c6ccccc6n2c5c31)CNC4=O (centres unmarked) [Compound I-11]	+		
CC1(C)OCC2(CC3OC2(C)n2c4ccccc4c4c5c(c6c7ccccc7n3c6c42)C(=O)NC5)O1 (centres unmarked) [Compound I-13]	+	+	
CC12OC(CC1(O)C=NNC(N)=O)n1c3ccccc3c3c4c(c5c6ccccc6n2c5c31)CNC4=O (centres unmarked) [Compound I-14]	+		
CC12OC(CC1(O)CNC(=O)[C@@H]1CCCN1)n1c3ccccc3c3c4c(c5c6ccccc6n2c5c31)CNC4=O (some centres unmarked) [Compound I-17]	-	+	
CC12OC(CC1(O)CNC(=O)[C@@H](N)CO)n1c3ccccc3c3c4c(c5c6ccccc6n2c5c31)CNC4=O (some centres unmarked) [Compound I-18]	+		
CC12OC(CC1(O)CN=[N+]=[N-])n1c3ccccc3c3c4c(c5c6ccccc6n2c5c31)CNC4=O (centres unmarked) [Compound I-21]	-	+	
COC(=O)C1(O)CC2OC1(C)n1c3ccccc3c3c4c(c5c6cc(Br)ccc6n2c5c31)C(=O)NC4 (centres unmarked) [Compound I-23]	-	+	
CC(=O)NCC1(O)CC2OC1(C)n1c3ccccc3c3c4c(c5c6ccccc6n2c5c31)C(=O)NC4 (centres unmarked) [Compound I-24]	+		
CN(C)C(=O)C1(O)CC2OC1(C)n1c3ccccc3c3c4c(c5c6ccccc6n2c5c31)C(=O)NC4 (centres unmarked) [Compound I-25]	+		
CC12OC(CC1(O)C(=O)NO)n1c3ccccc3c3c4c(c5c6ccccc6n2c5c31)CNC4=O (centres unmarked) [Compound I-26]	+		
COC(=O)C1(O)CC2OC1(C)n1c3ccccc3c3c4c(c5c6cc(NC(=O)Nc7ccccc7)ccc6n2c5c31)C(=O)NC4 (centres unmarked) [Compound I-27]	-	+	

SMILES	trk 100 nM (inhibition of phosphorylation)	trk 500 nM (inhibition of phosphorylation)	phosphorylation response (FIG. 1, spot)
CC12OC(CC1(O)C=NO)n1c3ccccc3c3c4c(c5c6ccccc6n2c5c31)CNC4=O (centres unmarked) [Compound I-28]	+		
CC12OC(CC1(O)C=NNC(=N)N)n1c3ccccc3c3c4c(c5c6ccccc6n2c5c31)CNC4=O (centres unmarked) [Compound I-29]	-	+	
CC12OC(CC1(O)C=NNC1=NCCN1)n1c3ccccc3c3c4c(c5c6ccccc6n2c5c31)CNC4=O (centres unmarked) [Compound I-30]	-	+	
COC(=O)CC1(O)CC2OC1(C)n1c3ccccc3c3c4c(c5c6ccccc6n2c5c31)C(=O)NC4 (centres unmarked) [Compound I-31]	+		
CC12OC(CC1(O)CNC(=O)CN)n1c3ccccc3c3c4c(c5c6ccccc6n2c5c31)CNC4=O (centres unmarked) [Compound I-32]	+		
CC12OC(CC1(O)C(=O)Nc1ccccc1)n1c3ccccc3c3c4c(c5c6ccccc6n2c5c31)CNC4=O (centres unmarked) [Compound I-33]	-	+	
CCNC(=O)Nc1ccc2c(c1)c1c3c(c4c5ccccc5n5c4c1n2C1CC(O)(C(=O)OC)C5(C)O1)CNC3=O (centres unmarked) [Compound I-34]	-	+	
CCNC(=O)OCc1ccc2c(c1)c1c3c(c4c5ccccc5n5c4c1n2C1CC(O)(C(=O)OC)C5(C)O1)CNC3=O (centres unmarked) [Compound I-35]	+	+	
CC12OC(CC1(O)CO)n1c3ccc(Br)cc3c3c4c(c5c6ccccc6n2c5c31)CNC4=O (centres unmarked) [Compound I-36]	+		
COC(=O)Nc1ccc2c(c1)c1c3c(c4c5ccccc5n5c4c1n2C1CC(O)(C(=O)OC)C5(C)O1)CNC3=O (centres unmarked) [Compound I-37]	+		
COC(=O)C1(O)CC2OC1(C)n1c3ccccc3c3c4c(c5c6cc(C)ccc6n2c5c31)C(=O)NC4 (centres unmarked) [Compound I-38]	+		
COC(=O)C1(O)CC2OC1(C)n1c3ccc(Br)cc3c3c4c(c5c6cc(Br)ccc6n2c5c31)C(=O)NC4 (centres unmarked) [Compound I-39]	+		somewhat diminished (a smaller spot was seen)
CC12OC(CC1(O)C[S+]([O-])c1ccccn1)n1c3ccccc3c3c4c(c5c6ccccc6n2c5c31)CNC4=O (centres unmarked) [Compound I-40]	+		
CCOCc1ccc2c(c1)c1c3c(c4c5ccccc5n5c4c1n2C1CC(O)(C(=O)OC)C5(C)O1)CNC3=O (centres unmarked) [Compound I-41]	+	+	
CC12OC(CC1(O)C(=O)NCCO)n1c3ccc(Br)cc3c3c4c(c5c6cc(Br)ccc6n2c5c31)CNC4=O (centres unmarked) [Compound I-43]	-	+	
COC(=O)C1(OC)CC2OC1(C)n1c3ccccc3c3c4c(c5c6ccccc6n2c5c31)C(=O)NC4 (centres unmarked) [Compound I-53]	+		
